The values below come from patent US12187723B2 (BRISTOL-MYERS SQUIBB COMPANY, priority 2019, dated 2025).

Each structure is given as a SMILES string.

Test [1] addresses T1, human TLR7 (Homo sapiens, UniProt Q9NYK1).
T1 construct: host or cells: HEK-Blue cells
T1 sequence (Q9NYK1 27-1049): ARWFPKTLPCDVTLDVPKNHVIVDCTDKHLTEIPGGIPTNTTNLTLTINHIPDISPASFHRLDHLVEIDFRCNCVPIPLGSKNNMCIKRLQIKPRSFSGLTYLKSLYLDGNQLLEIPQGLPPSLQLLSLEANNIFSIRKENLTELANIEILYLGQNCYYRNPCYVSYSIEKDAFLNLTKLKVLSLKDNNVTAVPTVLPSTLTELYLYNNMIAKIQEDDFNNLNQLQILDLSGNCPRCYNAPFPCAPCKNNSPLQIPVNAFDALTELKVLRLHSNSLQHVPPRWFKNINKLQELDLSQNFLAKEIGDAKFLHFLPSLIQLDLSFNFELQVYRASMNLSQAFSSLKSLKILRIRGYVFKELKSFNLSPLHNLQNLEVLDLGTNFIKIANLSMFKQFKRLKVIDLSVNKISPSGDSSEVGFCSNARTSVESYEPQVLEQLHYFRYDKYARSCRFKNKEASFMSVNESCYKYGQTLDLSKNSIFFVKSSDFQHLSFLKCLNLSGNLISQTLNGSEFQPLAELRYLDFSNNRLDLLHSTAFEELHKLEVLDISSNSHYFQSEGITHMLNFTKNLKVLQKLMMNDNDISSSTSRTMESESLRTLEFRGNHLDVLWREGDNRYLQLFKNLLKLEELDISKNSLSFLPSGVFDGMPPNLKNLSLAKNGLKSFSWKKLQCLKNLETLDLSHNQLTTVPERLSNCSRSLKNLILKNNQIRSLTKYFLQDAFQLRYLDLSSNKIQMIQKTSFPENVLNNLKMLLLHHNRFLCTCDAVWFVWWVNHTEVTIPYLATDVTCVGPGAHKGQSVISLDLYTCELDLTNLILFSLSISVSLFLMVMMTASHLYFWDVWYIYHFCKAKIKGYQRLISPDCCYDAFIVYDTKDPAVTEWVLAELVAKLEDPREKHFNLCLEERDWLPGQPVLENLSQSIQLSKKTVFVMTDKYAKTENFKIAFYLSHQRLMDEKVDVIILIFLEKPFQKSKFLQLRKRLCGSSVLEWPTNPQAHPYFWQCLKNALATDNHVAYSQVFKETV
The test is described as follows: TLR7 inhibition reporter assay (HEK-Blue SEAP). It counts as cell-based. The conditions noted are these: HEK-Blue cells overexpressing human TLR7, gardiquimod 7.5 μM, 22 hour incubation. An outline of the steps:
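22 h, 37° C, 5% CO2 incubation; compounds 0.05 nM-50 μM final; TLR7 cells 15000/well, TLR8 20,000/well. Readout: SEAP via HEK-Blue Detection medium. % inhibition = signal reduction versus agonist + DMSO wells, referenced to known inhibitor.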
A general note: A reporter such as luciferase makes a cellular process visible.

The target in test [2] is T2, human TLR8 (Homo sapiens, UniProt Q9NR97).
T2 construct: host or cells: HEK-Blue cells
T2 sequence (Q9NR97 27-1041): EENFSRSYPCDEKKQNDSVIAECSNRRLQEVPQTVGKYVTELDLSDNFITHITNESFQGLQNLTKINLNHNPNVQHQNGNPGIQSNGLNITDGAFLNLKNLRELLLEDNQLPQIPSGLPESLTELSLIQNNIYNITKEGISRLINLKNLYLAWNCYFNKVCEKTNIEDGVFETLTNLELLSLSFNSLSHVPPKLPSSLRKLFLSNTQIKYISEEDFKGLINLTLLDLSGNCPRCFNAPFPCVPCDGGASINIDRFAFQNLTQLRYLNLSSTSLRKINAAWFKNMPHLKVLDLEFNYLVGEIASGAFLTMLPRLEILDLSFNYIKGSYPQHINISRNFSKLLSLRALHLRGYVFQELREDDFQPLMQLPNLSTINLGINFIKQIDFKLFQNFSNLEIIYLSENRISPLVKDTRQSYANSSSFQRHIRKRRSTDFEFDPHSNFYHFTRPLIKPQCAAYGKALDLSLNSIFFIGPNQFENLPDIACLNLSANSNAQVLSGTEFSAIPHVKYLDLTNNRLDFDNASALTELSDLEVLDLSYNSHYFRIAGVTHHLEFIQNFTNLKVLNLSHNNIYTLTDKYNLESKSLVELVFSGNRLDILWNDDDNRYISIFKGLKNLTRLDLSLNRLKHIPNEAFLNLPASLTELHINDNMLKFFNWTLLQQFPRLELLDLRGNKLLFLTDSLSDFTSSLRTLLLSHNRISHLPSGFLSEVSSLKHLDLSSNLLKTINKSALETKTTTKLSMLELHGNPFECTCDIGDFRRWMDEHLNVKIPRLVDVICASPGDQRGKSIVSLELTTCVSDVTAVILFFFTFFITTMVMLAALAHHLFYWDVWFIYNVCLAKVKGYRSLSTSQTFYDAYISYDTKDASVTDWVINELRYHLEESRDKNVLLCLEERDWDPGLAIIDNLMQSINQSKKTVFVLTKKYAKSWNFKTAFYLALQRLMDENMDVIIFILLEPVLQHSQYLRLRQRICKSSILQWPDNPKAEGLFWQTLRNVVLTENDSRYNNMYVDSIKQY
The test is described as follows: TLR8 inhibition reporter assay (HEK-Blue SEAP). It counts as cell-based. The conditions noted are these: HEK-Blue cells overexpressing human TLR8, R848 15.9 μM, 22 hour incubation. The procedure, abridged:
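Compound treatment: 30 min, RT, 0.05 nM–50 μM final. Agonist: TLR7 gardiquimod 7.5 μM; TLR8 R848 15.9 μM; TLR9 ODN2006 5 nM. Incubation 22 h, 37 °C, 5% CO2. Readout SEAP, HEK-Blue Detection.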

A word on the IC50: it is the point on the concentration scale where inhibition reaches its midpoint. A higher IC50 goes with weaker potency in that assay. Take `Cc1cc2c(cc1-c1cc(C)c3ncnn3c1)[nH]c(=O)n2[C@H]1CC[C@H](NC(C)C)CC1` [Example 25, 1-((1r,4s)-4-(isopropylamino)cyclohexyl)-6-methyl-5-(8-methyl-[1,2,4]triazolo[1,5-a]pyridin-6-yl)-1,3-dihydro-2H-benzo[d]imidazol-2-one]: the figures for the IC50 in test [1] and in test [2] were 20.2 nM and 11.1 nM, respectively.

For `COc1c(C)c(-c2cc3[nH]c(=O)n(C4CCC(N5CC(OC)C5)CC4)c3cc2C(C)C)cn2ncnc12` (stereo not shown) [Example 265, 6-isopropyl-5-(8-methoxy-7-methyl-[1,2,4]triazolo[1,5-a]pyridin-6-yl)-1-(4-(3-methoxyazetidin-1-yl)cyclohexyl)-1,3-dihydro-2H-benzo[d]imidazol-2-one], the concentration for half-maximal inhibition (IC50) in test [1] came to 7.18 nM; in test [2], 2.72 nM.

In the case of `Cc1cc2c(cc1-c1cc(C)c3ncnn3c1)[nH]c(=O)n2[C@H]1CC[C@@H](N)CC1` [1 EE], the IC50 worked out at 19.3 nM in test [1] and 31.8 nM in test [2].

As for `Cc1cc2c(cc1-c1cc(C)c3ncnn3c1)[nH]c(=O)n2[C@H]1CC[C@H](N(C)C)CC1` [Example 23, 1-((1r,4r)-4-(dimethylamino)cyclohexyl)-6-methyl-5-(8-methyl-[1,2,4]triazolo[1,5-a]pyridin-6-yl)-1,3-dihydro-2H-benzo[d]imidazol-2-one], the values for the IC50 in test [1] and in test [2] were 37.7 nM and 30.9 nM, respectively.

Turning to `CCN(CC)[C@H]1CC[C@@H](n2c(=O)[nH]c3cc(-c4cc(C)c5ncnn5c4)c(C)cc32)CC1` [Example 20, 1-((1s,4s)-4-(diethylamino)cyclohexyl)-6-methyl-5-(8-methyl-[1,2,4]triazolo[1,5-a]pyridin-6-yl)-1,3-dihydro-2H-benzo[d]imidazol-2-one], the IC50 was determined as 8.86 nM in test [1] and 14.4 nM in test [2].

Consider `COCCNC1CCC(n2c(=O)[nH]c3cc(-c4cn5ncnc5c(OC)c4C)c(C(C)C)cc32)CC1` (stereo not shown) [Example 257], for which the IC50 stood at 6.97 nM in test [1] and 1.38 nM in test [2].

As to `COc1cc(-c2cc3[nH]c(=O)n(C4CCC(N5C[C@@H](F)[C@@H](F)C5)CC4)c3cc2C(C)C)cn2ncnc12` (single isomer, unassigned) [Example 293], the IC50 in test [1] was 10.9 nM; in test [2], 7.74 nM.

As to `COc1c(C)c(-c2cc3[nH]c(=O)n(C4CCC(N5CCCOCC5)CC4)c3cc2C(C)C)cn2ncnc12` (single isomer, unassigned) [Example 261, 1-(4-(1,4-oxazepan-4-yl)cyclohexyl)-6-isopropyl-5-(8-methoxy-7-methyl-[1,2,4]triazolo[1,5-a]pyridin-6-yl)-1,3-dihydro-2H-benzo[d]imidazol-2-one], the IC50 was 15.5 nM in test [1] and 2.23 nM in test [2].

Take `COc1cc(-c2cc3[nH]c(=O)n(C4CCC(N5CC6(COC6)C5)CC4)c3cc2C(C)C)cn2ncnc12` (stereo not shown) [Example 254, 1-(4-(2-oxa-6-azaspiro[3.3]heptan-6-yl)cyclohexyl)-6-isopropyl-5-(8-methoxy-[1,2,4]triazolo[1,5-a]pyridin-6-yl)-1,3-dihydro-2H-benzo[d]imidazol-2-one]: the IC50 came out at 6.81 nM in test [1] and 3.38 nM in test [2].

On to `COc1c(C)c(-c2cc3[nH]c(=O)n(C4CCC(N5CC6(COC6)C5)CC4)c3cc2C(C)C)cn2ncnc12` (single isomer, unassigned) [Example 270, 1-(4-(2-oxa-6-azaspiro[3.3]heptan-6-yl)cyclohexyl)-6-isopropyl-5-(8-methoxy-7-methyl-[1,2,4]triazolo[1,5-a]pyridin-6-yl)-1,3-dihydro-2H-benzo[d]imidazol-2-one], for which the results for the IC50 in test [1] and in test [2] were 19.3 nM and 2.83 nM, respectively.

For `Cc1c(-c2cc3[nH]c(=O)n(C4CCC(N5CCC(F)(F)CC5)CC4)c3cc2C(C)C)cn2ncnc2c1C` (single isomer, unassigned) [Example 275, 1-(4-(4,4-difluoropiperidin-1-yl)cyclohexyl)-5-(7,8-dimethyl-[1,2,4]triazolo[1,5-a]pyridin-6-yl)-6-isopropyl-1,3-dihydro-2H-benzo[d]imidazol-2-one], the results for the IC50 in test [1] and in test [2] were 13.7 nM and 0.81 nM, respectively.
